These are literature values, as cited in patent US11419848B2, “Combination of unsaponifiable lipids combined with polyphenols and/or catechins for the protection, treatment and repair of cartilage in joints of humans and animals” (NUTRAMAX LABORATORIES, INC., priority 2004, dated 2022).

Data set [1] relates to IL-1 induced expression of nitric oxide synthase and nitric oxide production.
The conditions of data set [2]: identified in ethanolic extract of cactus.
The test system of data set [3] is chronic inflammation model. The note with it: administered topically and in a chronic inflammation model, mouse.
Another data set relates to carrageenan paw oedema. The note with it: rats, extracts of Verbena officinalis.

Turning to `O=C(O[C@@H]1Cc2c(O)cc(O)cc2O[C@@H]1c1cc(O)c(O)c(O)c1)c1cc(O)c(O)c(O)c1` [EGCG, epigallocatechin gallate], in data set [1], the “IL-1 induced expression of nitric oxide synthase and nitric oxide production” value is reported as “inhibits”; the “activation of nuclear factor-kB” value is “suppresses”.

On to `CC[C@H](CC[C@@H](C)[C@H]1CC[C@H]2[C@@H]3CC=C4C[C@@H](O)CC[C@]4(C)[C@H]3CC[C@]12C)C(C)C` [beta sitosterol], for which the results for the anti-inflammatory activity result (in data set [2]; in data set [3]; in the data set on carrageenan paw oedema) were “anti-inflammatory activity”, “potent anti-inflammatory agents” and “one of the potent anti-inflammatory agents”, respectively.

Turning to `CC[C@H](/C=C/[C@@H](C)[C@H]1CC[C@H]2[C@@H]3CC=C4C[C@@H](O)CC[C@]4(C)[C@H]3CC[C@]12C)C(C)C` [stigmasterol], in data set [3], the anti-inflammatory activity entry is “potent anti-inflammatory agents”.
